Reference: patent publication US20260174875A1 (Novo Nordisk A/S, priority 2023, published 2026)
Numbered stars: 1 amine (or outer) side, 2 acyl side, 3 side chain; on linkers, the order of the positions; unused ones are H or OH. Square brackets hold non-standard residues; d marks the D form. Side chains are listed from the residue outwards. * marks the point of attachment. C18 diacid = O=C(O)CCCCCCCCCCCCCCCCC(=O)*; C16 diacid = O=C(O)CCCCCCCCCCCCCCC(=O)*; γGlu = O=C(O)[C@H](CCC(=O)[*:2])N[*:1]; AEEA = NCCOCCOCC(=O)O; Aib = CC(C)(N)C(=O)O

biological target: T1, human GLP-1 receptor (hGLP-1R) (Homo sapiens, UniProt P43220); experiment: GLP-1 receptor assay, method A (CRE-luciferase reporter, BHK cells); format: cell-based; conditions: absence of HSA; <50 = balanced tri-agonist
T1 construct: expressed in transfected cells
T1 sequence (P43220 24-463): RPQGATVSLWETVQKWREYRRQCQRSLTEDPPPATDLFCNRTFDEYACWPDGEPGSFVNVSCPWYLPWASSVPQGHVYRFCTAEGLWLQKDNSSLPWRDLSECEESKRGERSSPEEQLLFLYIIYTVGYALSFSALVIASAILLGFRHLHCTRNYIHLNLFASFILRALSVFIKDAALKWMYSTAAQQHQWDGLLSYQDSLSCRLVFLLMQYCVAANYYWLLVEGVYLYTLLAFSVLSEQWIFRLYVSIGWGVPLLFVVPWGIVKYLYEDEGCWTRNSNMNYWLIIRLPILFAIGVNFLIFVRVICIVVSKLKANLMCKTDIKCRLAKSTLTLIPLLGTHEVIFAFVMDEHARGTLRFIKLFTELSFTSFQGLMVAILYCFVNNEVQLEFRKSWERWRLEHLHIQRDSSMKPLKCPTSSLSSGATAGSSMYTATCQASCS
Outline: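 Run in parallel with no HSA and with 1% (w/v) HSA to gauge albumin effects; assay buffer also held 1% ovalbumin, 10 mM HEPES and 0.1% Pluronic F-68. Thawed hGLP-1R BHK CRE-Luc cells incubated 3 h at 37 °C, then luciferase luminescence measured (steadylite Plus).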

Substance	potency ratio (A/B): highest EC50 divided by lowest EC50 over hGLP-1R, hGIPR, hAMYR3
Y[Aib]EGTFTSDYSILLEEQAAREFIEWLLAGGPSK([AEEA-AEEA-γGlu-C16 diacid])GAPPPSGGGEASELSTAALGRLSAELHELATLPRTETGSGSP-NH2 [compound 10]	7

same assay, conditions: hGLP-1R Potency, 1% HSA, EC50, method A, in the presence of 1% HSA

Substance	EC50 [pM]
H[Aib]HGTFTSDYSILLEEQAAREFIEWLLAGGPSK([AEEA-AEEA-γGlu-C16 diacid])GEASELSTAALGRLSAELHRLATLPRTETGSGSP-NH2 [Compound 17]	13.1
H[Aib]HGTFTSDYSILLEEQAAREFIEWLLAGGPSK([AEEA-AEEA-γGlu-C16 diacid])GEASQLSTAALGRLSAELHRLADLPRTETGSGSP-NH2 [Compound 62]	11.5
H[Aib]HGTFTSDYSILLEEQAAREFIEWLLAGGPSK([AEEA-AEEA-γGlu-C18 diacid])GAPPPSGGGGASELSTAALGRLSAELHRLATLPRTETGSGSP-NH2 [Compound 14]	75.9
H[Aib]HGTFTSDYSILLEEQAAREFIEWLLAGGPSK([AEEA-AEEA-γGlu-C18 diacid])GEASHLSTAQTARLSAELHELATLPRTETGSGSP-NH2 [Compound 36]	208
H[Aib]HGTFTSDYSILLEEQAAREFIEWLLAGGPSK([AEEA-AEEA-γGlu-C18 diacid])GEASQLSTAALGRLSAELHTLATLPRTETGSGSP-NH2 [Compound 63]	101
H[Aib]HGTFTSDYSILLEEQAAREFIEWLLAGGPSRGEASHLSTAQTQRLSAELHK([AEEA-AEEA-γGlu-C18 diacid])LATLPRTETGSGSP-NH2 [Compound 69]	20.4
H[Aib]HGTFTSDYSILLEEQAAREFIEWLLAGGPSSGAGQAPGQAPGASHLSTAQTQRLSAK([AEEA-AEEA-γGlu-C18 diacid])LHRLATLPRTETGSGSP-NH2 [Compound 78]	17.8
H[Aib]HGTFTSDYSILLEEQAAREFIEWLLAGGPSSGEASHLSTAALGRLSAELHRLK([AEEA-AEEA-γGlu-C18 diacid])TLPRTETGSGSP-NH2 [Compound 89]	29.5
H[Aib]HGTFTSDYSILLEEQAAREFIEWLLAGGPSSGEASHLSTAALGRLSAK([AEEA-AEEA-γGlu-C18 diacid])LHRLATLPRTETGSGSP-NH2 [Compound 87]	39.3
H[Aib]HGTFTSDYSILLEEQAAREFIEWLLAGGPSSGEASHLSTAQTQRLSAK([AEEA-AEEA-γGlu-C18 diacid])LHRLATLPRTETGSGSP-NH2 [Compound 82]	24.2
Y[Aib]EGTFTSDYSILLEEQAAREFIEWLLAGGPSK([AEEA-AEEA-γGlu-C16 diacid])GAPPPSGGGEASELSTAALGRLSAELHELATLPRTETGSGSP-NH2 [compound 10]	246

same assay, conditions: hGLP-1R Potency, no HSA, EC50, method A, absence of HSA

Substance	EC50 [pM]
H[Aib]HGTFTSDYSILLEEQAAREFIEWLLAGGPSK([AEEA-AEEA-γGlu-C16 diacid])GEASQLSTAALGRLSAELHRLADLPRTETGSGSP-NH2 [Compound 62]	4.13

same assay, conditions: method A, absence of HSA; read-out: hGLP-1R Potency, no HSA, EC50

Substance	EC50 [pM]
H[Aib]HGTFTSDYSILLEEQAAREFIEWLLAGGPSK([AEEA-AEEA-γGlu-C16 diacid])GEASELSTAALGRLSAELHRLATLPRTETGSGSP-NH2 [Compound 17]	2.72
H[Aib]HGTFTSDYSILLEEQAAREFIEWLLAGGPSK([AEEA-AEEA-γGlu-C18 diacid])GAPPPSGGGGASELSTAALGRLSAELHRLATLPRTETGSGSP-NH2 [Compound 14]	2.05
H[Aib]HGTFTSDYSILLEEQAAREFIEWLLAGGPSK([AEEA-AEEA-γGlu-C18 diacid])GEASHLSTAQTARLSAELHELATLPRTETGSGSP-NH2 [Compound 36]	3.19
H[Aib]HGTFTSDYSILLEEQAAREFIEWLLAGGPSK([AEEA-AEEA-γGlu-C18 diacid])GEASQLSTAALGRLSAELHTLATLPRTETGSGSP-NH2 [Compound 63]	4.77
H[Aib]HGTFTSDYSILLEEQAAREFIEWLLAGGPSRGEASHLSTAQTQRLSAELHK([AEEA-AEEA-γGlu-C18 diacid])LATLPRTETGSGSP-NH2 [Compound 69]	3.45
H[Aib]HGTFTSDYSILLEEQAAREFIEWLLAGGPSSGAGQAPGQAPGASHLSTAQTQRLSAK([AEEA-AEEA-γGlu-C18 diacid])LHRLATLPRTETGSGSP-NH2 [Compound 78]	4.03
H[Aib]HGTFTSDYSILLEEQAAREFIEWLLAGGPSSGEASHLSTAALGRLSAELHRLK([AEEA-AEEA-γGlu-C18 diacid])TLPRTETGSGSP-NH2 [Compound 89]	3.86
H[Aib]HGTFTSDYSILLEEQAAREFIEWLLAGGPSSGEASHLSTAALGRLSAK([AEEA-AEEA-γGlu-C18 diacid])LHRLATLPRTETGSGSP-NH2 [Compound 87]	8.49
H[Aib]HGTFTSDYSILLEEQAAREFIEWLLAGGPSSGEASHLSTAQTQRLSAK([AEEA-AEEA-γGlu-C18 diacid])LHRLATLPRTETGSGSP-NH2 [Compound 82]	3.45
Y[Aib]EGTFTSDYSILLEEQAAREFIEWLLAGGPSK([AEEA-AEEA-γGlu-C16 diacid])GAPPPSGGGEASELSTAALGRLSAELHELATLPRTETGSGSP-NH2 [compound 10]	13.8

biological target: T2, human amylin receptor (hAMYR3) (Homo sapiens, UniProt O60896+P30988); experiment: Amylin receptor assay, method A (CRE-luciferase reporter, BHK cells); format: cell-based; conditions: hAMYR3 Potency, 1% HSA, EC50, method A, in the presence of 1% HSA
T2 construct: host or cells: BHK cells (Hollex-1 line expressing hCTR(a) and CRE-Luc), further transfected with human RAMP3
T2 sequence (P30988 25-474): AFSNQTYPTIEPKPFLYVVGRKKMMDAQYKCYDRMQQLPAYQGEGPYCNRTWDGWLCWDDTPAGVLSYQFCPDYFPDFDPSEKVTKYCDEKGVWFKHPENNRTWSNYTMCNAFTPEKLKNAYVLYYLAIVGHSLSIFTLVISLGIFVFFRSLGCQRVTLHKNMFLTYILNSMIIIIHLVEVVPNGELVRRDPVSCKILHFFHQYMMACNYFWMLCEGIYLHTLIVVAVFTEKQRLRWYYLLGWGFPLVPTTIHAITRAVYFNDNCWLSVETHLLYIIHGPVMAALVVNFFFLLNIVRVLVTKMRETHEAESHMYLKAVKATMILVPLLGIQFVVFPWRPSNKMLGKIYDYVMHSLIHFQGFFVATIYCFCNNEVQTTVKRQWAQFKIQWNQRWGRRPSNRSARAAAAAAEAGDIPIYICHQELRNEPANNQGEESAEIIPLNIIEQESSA
T2 sequence (O60896 24-148): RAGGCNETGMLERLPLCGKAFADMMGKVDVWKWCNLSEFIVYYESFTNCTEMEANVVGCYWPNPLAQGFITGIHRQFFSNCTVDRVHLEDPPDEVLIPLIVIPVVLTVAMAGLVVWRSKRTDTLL

Substance	EC50 [pM]
H[Aib]HGTFTSDYSILLEEQAAREFIEWLLAGGPSK([AEEA-AEEA-γGlu-C16 diacid])GEASELSTAALGRLSAELHRLATLPRTETGSGSP-NH2 [Compound 17]	33.6
H[Aib]HGTFTSDYSILLEEQAAREFIEWLLAGGPSK([AEEA-AEEA-γGlu-C16 diacid])GEASQLSTAALGRLSAELHRLADLPRTETGSGSP-NH2 [Compound 62]	28.8
H[Aib]HGTFTSDYSILLEEQAAREFIEWLLAGGPSK([AEEA-AEEA-γGlu-C18 diacid])GAPPPSGGGGASELSTAALGRLSAELHRLATLPRTETGSGSP-NH2 [Compound 14]	33.4
H[Aib]HGTFTSDYSILLEEQAAREFIEWLLAGGPSK([AEEA-AEEA-γGlu-C18 diacid])GEASHLSTAQTARLSAELHELATLPRTETGSGSP-NH2 [Compound 36]	137
H[Aib]HGTFTSDYSILLEEQAAREFIEWLLAGGPSK([AEEA-AEEA-γGlu-C18 diacid])GEASQLSTAALGRLSAELHTLATLPRTETGSGSP-NH2 [Compound 63]	70.2
H[Aib]HGTFTSDYSILLEEQAAREFIEWLLAGGPSRGEASHLSTAQTQRLSAELHK([AEEA-AEEA-γGlu-C18 diacid])LATLPRTETGSGSP-NH2 [Compound 69]	78.9
H[Aib]HGTFTSDYSILLEEQAAREFIEWLLAGGPSSGAGQAPGQAPGASHLSTAQTQRLSAK([AEEA-AEEA-γGlu-C18 diacid])LHRLATLPRTETGSGSP-NH2 [Compound 78]	17.1
H[Aib]HGTFTSDYSILLEEQAAREFIEWLLAGGPSSGEASHLSTAALGRLSAELHRLK([AEEA-AEEA-γGlu-C18 diacid])TLPRTETGSGSP-NH2 [Compound 89]	39.7
H[Aib]HGTFTSDYSILLEEQAAREFIEWLLAGGPSSGEASHLSTAALGRLSAK([AEEA-AEEA-γGlu-C18 diacid])LHRLATLPRTETGSGSP-NH2 [Compound 87]	36.5
H[Aib]HGTFTSDYSILLEEQAAREFIEWLLAGGPSSGEASHLSTAQTQRLSAK([AEEA-AEEA-γGlu-C18 diacid])LHRLATLPRTETGSGSP-NH2 [Compound 82]	38
Y[Aib]EGTFTSDYSILLEEQAAREFIEWLLAGGPSK([AEEA-AEEA-γGlu-C16 diacid])GAPPPSGGGEASELSTAALGRLSAELHELATLPRTETGSGSP-NH2 [compound 10]	175

same assay, conditions: hAMYR3 Potency, no HSA, EC50, method A, absence of HSA

Substance	EC50 [pM]
H[Aib]HGTFTSDYSILLEEQAAREFIEWLLAGGPSK([AEEA-AEEA-γGlu-C16 diacid])GEASQLSTAALGRLSAELHRLADLPRTETGSGSP-NH2 [Compound 62]	3.35

same assay, conditions: method A, absence of HSA; read-out: hAMYR3 Potency, no HSA, EC50

Substance	EC50 [pM]
H[Aib]HGTFTSDYSILLEEQAAREFIEWLLAGGPSK([AEEA-AEEA-γGlu-C16 diacid])GEASELSTAALGRLSAELHRLATLPRTETGSGSP-NH2 [Compound 17]	5.13
H[Aib]HGTFTSDYSILLEEQAAREFIEWLLAGGPSK([AEEA-AEEA-γGlu-C18 diacid])GAPPPSGGGGASELSTAALGRLSAELHRLATLPRTETGSGSP-NH2 [Compound 14]	2.21
H[Aib]HGTFTSDYSILLEEQAAREFIEWLLAGGPSK([AEEA-AEEA-γGlu-C18 diacid])GEASHLSTAQTARLSAELHELATLPRTETGSGSP-NH2 [Compound 36]	3.84
H[Aib]HGTFTSDYSILLEEQAAREFIEWLLAGGPSK([AEEA-AEEA-γGlu-C18 diacid])GEASQLSTAALGRLSAELHTLATLPRTETGSGSP-NH2 [Compound 63]	2.86
H[Aib]HGTFTSDYSILLEEQAAREFIEWLLAGGPSRGEASHLSTAQTQRLSAELHK([AEEA-AEEA-γGlu-C18 diacid])LATLPRTETGSGSP-NH2 [Compound 69]	3.43
H[Aib]HGTFTSDYSILLEEQAAREFIEWLLAGGPSSGAGQAPGQAPGASHLSTAQTQRLSAK([AEEA-AEEA-γGlu-C18 diacid])LHRLATLPRTETGSGSP-NH2 [Compound 78]	1.83
H[Aib]HGTFTSDYSILLEEQAAREFIEWLLAGGPSSGEASHLSTAALGRLSAELHRLK([AEEA-AEEA-γGlu-C18 diacid])TLPRTETGSGSP-NH2 [Compound 89]	3.12
H[Aib]HGTFTSDYSILLEEQAAREFIEWLLAGGPSSGEASHLSTAALGRLSAK([AEEA-AEEA-γGlu-C18 diacid])LHRLATLPRTETGSGSP-NH2 [Compound 87]	4.99
H[Aib]HGTFTSDYSILLEEQAAREFIEWLLAGGPSSGEASHLSTAQTQRLSAK([AEEA-AEEA-γGlu-C18 diacid])LHRLATLPRTETGSGSP-NH2 [Compound 82]	3.26
Y[Aib]EGTFTSDYSILLEEQAAREFIEWLLAGGPSK([AEEA-AEEA-γGlu-C16 diacid])GAPPPSGGGEASELSTAALGRLSAELHELATLPRTETGSGSP-NH2 [compound 10]	6.8

system: not listed separately; experiment: Chemical stability assessment in formulation (UPLC-UV-MS purity loss at 37° C.); format: physicochemical; conditions: 8 mM phosphate buffer pH 7.4, 1 mg/mL, 2 weeks
Outline: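 Peptides at target 1 mg/mL in 8 mM phosphate buffer, pH adjusted to 7.4, incubated in capped vials at 37° C. and sampled over 2 weeks, frozen until analysis. Purity followed by UPLC-UV-MS with a 0.1% formic acid water/acetonitrile gradient.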

Substance	Purity loss per week at 37° C. [%]
H[Aib]HGTFTSDYSILLEEQAAREFIEWLLAGGPSK([AEEA-AEEA-γGlu-C16 diacid])GEASELSTAALGRLSAELHRLATLPRTETGSGSP-NH2 [Compound 17]	4.2
H[Aib]HGTFTSDYSILLEEQAAREFIEWLLAGGPSK([AEEA-AEEA-γGlu-C16 diacid])GEASQLSTAALGRLSAELHRLADLPRTETGSGSP-NH2 [Compound 62]	3.0
H[Aib]HGTFTSDYSILLEEQAAREFIEWLLAGGPSK([AEEA-AEEA-γGlu-C18 diacid])GEASQLSTAALGRLSAELHTLATLPRTETGSGSP-NH2 [Compound 63]	3.7
H[Aib]HGTFTSDYSILLEEQAAREFIEWLLAGGPSSGAGQAPGQAPGASHLSTAQTQRLSAK([AEEA-AEEA-γGlu-C18 diacid])LHRLATLPRTETGSGSP-NH2 [Compound 78]	3.5
